Columns and labels:
[1] = pharmacokinetic study of CFM-4.16 NLF and free drug (Study 2); format: in vivo, Sprague Dawley Rats; conditions: rats; 40 mg/kg orally
Protocol: J. Biomed. Nanotechnol. 2015; 11:1608-1627]. Briefly, rats were fasted overnight prior to the start of experiments and randomly divided into three experimental groups receiving CFM-4.16 FD and CFM-4.16 NLF at 40 mg/kg orally and CFM-4.16 solution (CFM-4.16 sol) at 5 mg/kg by intravenous route. After the drug administration, blood samples (250 μl) were withdrawn from tail veins at 0, 0.25, 0.5, 1, 2, 4, 6, 8, 12 and 24 h, and collected directly into heparinized microvet blood collection tubes and plasma was obtained by centrifugation at 10,000 rpm for 10 min. The plasma samples were stored at −80° C. until needed for analysis. CFM-4.16 was extracted from the plasma by protein precipitation method and extracted samples were dissolved in mobile phase and samples were analyzed by HPLC. Oral bioavailability of CFM-4.16 FD and CFM-4.16 NLF along with their pharmacokinetic parameters such as area under curve (AUC), Cmax, t½, and tmax were estimated using non-compartmental techniques with WinNonlin® 5.0 software (Pharsight Corporation, Mountain View, Calif., USA).

[2] = test system: CARP-1, cyclin B1, cleaved PARP, caspase-8, p38, MKK4, JNK1/2 in TNBC cells; assay: Western blot, apoptosis and SAPK signaling; format: cell-based
Protocol: (§1) For protein expression analysis, Western blot (WB) experiments were performed according to the standard procedures. The cells were either untreated or treated with various agents either alone or in combinations as indicated. Following treatment durations, the cells were lysed in cell lysis (10×) buffer (#9803; cell signaling) containing 0.1% of protease and phosphatase inhibitor cocktail (Sigma) for 20 min at 4° C. The lysates were centrifuged at 14,000 rpm at 4° C. for 15-20 min to remove debris. Protein concentrations of whole cell lysates were determined using the Protein Assay Kit. Supernatant proteins, 50-100 μg from each sample, were separated by SDS-polyacrylamide gel electrophoresis (SDS-PAGE) and transferred to polyvinylidene difluoride (PVDF) membrane (Bio-rad, Hercules, Calif.) by standard procedures. […] The antibody-bound proteins were visualized by treatment with the chemiluminescence detection reagent according to manufacturer's instructions, followed by exposure to X-ray film (Denville Scientific Inc.). The same membranes were re-probed with the anti-β-actin or anti-α-tubulin antibody, which was used as an internal control for protein loading.

[3] = solubility observations; format: physicochemical
[4] = test system: mammospheres of parental and drug-resistant MDA-MB-468 TNBC cells; assay: three-dimensional mammosphere assay; format: cell-based, human
Protocol: The TNBC cells were obtained from tumors derived from parental and drug-resistant cells or from a two-dimensional culture plate with ˜70-80% confluence. The cells were washed twice in 1×PBS and trypsinized following established protocols. The cells were pelleted at 200×g at room temperature, and re-suspended in 5 ml of mammosphere media (DMEM/F12 supplemented with 2 mM L-glutamine, 100 U/ml penicillin, […] streptomycin, 1×B27 supplement, 20 ng/ml recombinant human epidermal growth factor (EGF; Sigma), 10 ng/ml recombinant human basic fibroblast growth factor (bFGF; R&D Systems). The cell suspension of ˜5000 viable cells per ml was then seeded in an ultra-low adherent 60 mm plate and incubated at 37° C. and 5% CO2 for two weeks without disturbing the plates. After the mammospheres formed, fresh media with or without 10 μM CFM-4.16 was added and the cells incubated for additional 24 h at 37° C. and 5% CO2. The mammospheres in the untreated and treated plates were photographed, and the cells were then dissociated to determine their viabilities by the MTT assay as described [Lombardo Y, de Giorgio A, Coombes C R, Stebbing J, Castellano L. Mammosphere Formation Assay from Human Breast Cancer Tissues and Cell Lines. J. Vis. Exp. 2015; 97: e52671. doi:10.3791/52671].

[5] = test system: MDA-MB-468 TNBC cells, wild type; assay: MTT viability assay, parental MDA-MB-468; format: cell-based, human
Protocol: (§2) In vitro inhibition of cell growth was assessed by MTT (3-[4, 5-dimethyltiazol-2-yl]-2.5-diphenyl tetrazolium bromide) reagent. Cells (5×10^3) were seeded in a 96-well culture plate and subsequently treated with respective agents at different concentrations as mentioned. Control cells were treated with 0.1% DMSO in culture medium. After treatment, the cells were incubated with 1 mg/ml of MTT reagent at 37° C. for 2-4 hours and then MTT was removed and 50 μL of DMSO was added, followed by colorimetric analysis using a multi-label plate reader at 560 nm (Victor3; PerkinElmer, Wellesley, Mass., USA).

[6] = maximal tolerated dose determination; format: in vivo
Text: J. Biomed. Nanotechnol. 2015; 11:1608-1627]. […] Results was expressed as percentage.

[7] = test system: MDA-MB-231 TNBC cells; conditions: 470 mg/kg, Qd 1-19, iv, DMSO plus cremophor; not shown
[8] = test system: parental and drug-resistant human TNBC cells
Protocol: Control cells were treated with 0.1% DMSO in culture medium.

[9] = test system: TNBC cells; assay: MTT viability assay, parental TNBC cells (lines not singled out); format: cell-based
Protocol: as §2

[10] = test system: Adriamycin-resistant (ADR-R) MDA-MB-468 sublines; assay: MTT viability assay, ADR-resistant MDA-MB-468 sublines; format: cell-based, human; conditions: ADR-resistant MDA-MB-468 subline 1; FIG. 5E
Protocol: Human TNBC MDA-MB-468 and MDA-MB-231, and mouse TNBC 4T1 cells were cultured in the chronic presence (>10 months) of Doxorubicin. The parental, wild-type cells were initially treated with 200 nM Doxorubicin for 2-3 weeks, followed by escalation to 400 nM, 1 μM, and 2 μM doses over a period of 3-4 weeks for each dose till resistance developed and the cells became well adapted to growth in […] of Doxorubicin for their routine culture. In the case of Cisplatin however, the human TNBC MDA-MB-468 and MDA-MB-231 were initially cultured in continuous presence of 1 μM Cisplatin for 3-4 weeks, and the dose was escalated to 1.5 μM and 3 μM over periods of 3-4 weeks for each dose till resistance developed and cells became adapted to routine culture in 3 μM dose. Subsequent, routine maintenance of the resistant cells in the presence of the respective drug was continued and multiple, resistant sublines for each of the TNBC cells were isolated and characterized for their growth inhibitory (GI)50 dose of respective therapeutic by the MTT-based viability assays as below.

[11] = test system: Klf4, Oct4, SOX2, CD133 in MDA-MB-231 TNBC cells; assay: Western blot, cancer stem cell markers; conditions: parental and ADR-resistant MDA-MB-231; FIG. 14B
Protocol: as §1

[12] = test system: Src, MET, and STAT3 kinases in TNBC cells; assay: Western blot, oncogenic tyrosine kinases; format: cell-based
Protocol: as §1

## O=C1N(Cc2ccccc2Cl)c2ccccc2C12NN=C(c1cccc(Cl)c1)S2 (centres unmarked) [CFM-4.16]
[1]
  AUC: 21.07 ± 4.20 µg·h/mL
  plasma Cmax concentration: 1.19 ± 0.035 µg/mL
[2]; FIGS. 5A-5C, 6A-6D
  apoptosis and SAPK markers in parental and drug-resistant TNBC cells: activated pro-apoptotic SAPKs p38α/β and JNK1/2, caspase-8, while causing cleavage of PARP and decline in mitotic cyclin B1 levels
[2]; parental and resistant TNBC cells, FIG. 5C
  activation of pro-apoptotic SAPKs in comparison with CFM-4: rather robust activation of both the pro-apoptotic SAPKs
[3]
  aqueous solubility: poor aqueous solubility
  behaviour of DMA solution on addition of water: immediately got precipitated
  lipid solubility: good lipid solubility
[4]; 10 μM, 24 h, FIG. 15A
  mammosphere integrity: disintegration of mammospheres
[4]; parental and ADR-resistant cells, FIG. 15B
  viability of mammospheres vs DMSO-treated controls: robust decline in viability
[5]; 10 μM dose
  inhibition / loss of cell viability: 80-100%
[5]; 20 μM, 24 h, FIG. 3A
  inhibition of viability compared with CFM-4: greater inhibition of viability
[6]; daily iv 24-32 mg/kg days 1-16, total dose 482 mg/kg, by day 7 (recovery by day 18)
  weight loss: 1.6 % body weight
[6]; daily iv, total dose 482 mg/kg
  clinical signs: mild ataxia with some tail and leg twitching resolving within 1-2 minutes
  histology: No other histological abnormalities
[7]
  tumor growth inhibition (T/C): failed to yield a therapeutic T/C values
[8]
  loss of viability, CFM-4.16 alone: 45-55%
[9]
  CC50: 7 to 8 µM
[9]; 5 μM each, combination, 6 h, FIG. 3C
  effect on ADR-mediated inhibition of viability: enhanced ADR-mediated inhibition of viability
[9]; 5 μM, 6 h, FIG. 3C
  loss of cell viability compared with ADR-treated cell line: greater loss of cell viability
[9]; 12 h, FIGS. 4A-4E
  growth of wild-type TNBC cells: inhibited growth
[9]; SAR screen of twelve analogs
  activity relative to parent compound CFM-4 or other analogs: superior
[9]; read-out: dose for inhibition of TNBC cells growth by 50% (GI50)
  GI50: ~2000 nM
[10]
  effect of siRNA-mediated depletion of CARP-1 on growth inhibition by the compound: interfered with growth inhibition
[11]
  levels of Oct4: robust decline in levels of Oct4
[12]; ADR as well as Cisplatin-resistant human TNBC cells, FIGS. 7A and 8C
  activation of STAT3: robustly attenuated
[12]; parental and drug-resistant human and murine TNBC cells
  activation and/or expression of MET and Src tyrosine kinases: reduced activation and/or expression

Reference: patent publication US10220025B1, “Self-emulsifying formulation of CARP-1 functional mimetics” (Florida A&M University, priority 2016, dated 2019)
